The values below come from publication PMC8773171, “Development of Small-Molecule STING Activators for Cancer Immunotherapy” (Biomedicines, 2021).

This experiment has as its target T1, STING (Homo sapiens, UniProt Q86WV6).
T1 construct: gene STING1; human STING WT protein 6His-tagged (recombinant)
Description: HTRF ligand-competitive binding assay with recombinant human STING; supported by CETSA in THP-1 cells.

Bounds are passed on as bounds.

T1 sequence (Q86WV6 whole entry): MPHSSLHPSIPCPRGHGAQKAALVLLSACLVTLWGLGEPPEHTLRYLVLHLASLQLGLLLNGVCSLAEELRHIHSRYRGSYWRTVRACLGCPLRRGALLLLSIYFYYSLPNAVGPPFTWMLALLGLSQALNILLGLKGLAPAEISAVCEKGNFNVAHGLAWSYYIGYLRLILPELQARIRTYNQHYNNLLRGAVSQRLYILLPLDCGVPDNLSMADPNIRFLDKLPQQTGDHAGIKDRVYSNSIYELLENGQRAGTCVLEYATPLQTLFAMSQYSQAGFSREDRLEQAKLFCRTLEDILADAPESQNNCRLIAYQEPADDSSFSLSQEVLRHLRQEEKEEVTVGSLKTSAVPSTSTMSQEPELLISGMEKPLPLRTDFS

In the case of `Nc1ccc(C(=O)N2CCc3cc(S(=O)(=O)N4C[C@H](c5ccccc5)NC4=O)ccc32)cc1` [DW2282], the “STING competitive binding potency” value was > 10 µM.
